From patent US20200246465A1, “USE OF TRYPTOPHAN DERIVATIVES FOR PROTEIN FORMULATIONS” (Genentech, Inc., priority 2015, published 2020) come the findings set out here.

What all share (type): physicochemical
A short description of data set [1]: ICH light stress of NAT in formulation buffer, RP-HPLC at 240 nm. The note with it: for % NAT degradation ± 1SD: ICH light stress (1.2 million lux-hours, 200 W-hours/m^2 UV, 24 hours), 0.3 mM NAT. As for the experimental part: A light box [Atlas SunTEST CPS+ Xenon Light Box (Chicago, Ill.)] designed to conduct the drug substance/product photostability test recommended by the International Conference on Harmonization (ICH) Expert Working Group was utilized to provide light stress to NAT-containing samples. The ICH photostability test is defined as 1.2 million lux-hours of white light and 200 W-hours/m^2 of UV light; the light box was programmed to provide the stress over a period of 24 hours. Histidine and non-histidine buffers containing 0.3 mM NAT ±5 mM L-Met were aliquoted into sterile glass vials (1 ml/vial). The vials were capped and placed on their side in the light box to maximize exposure to the light source. A control sample for each buffer condition was covered in foil and placed in the light box for the duration of exposure. For consistency with the other stress models, prior to HPLC analysis, the buffer solutions were diluted with Milli-Q H2O to a final NAT concentration of 0.2 mM.
(§1) NAT and NAT degradants were separated on an Agilent 1200 series HPLC or Waters H Class UPLC using an Agilent ZORBAX SB-C18 3.5 μm, 4.6×75 mm reverse phase column. Column temperature was held at 30±0.8° C. by a thermostat controller. The gradients used for HPLC and UPLC are listed in Tables 5 and 6, respectively (note: the shorter gradient on the UPLC was designed to accommodate earlier retention times and the column re-equilibration period was elongated due to the larger range of system pressure at a flow rate of 1.0 ml/min). NAT degradation products were detected at 240 nm. The standard bandwidth setting (8 nm for Agilent 1200 HPLC, 4.8 nm for Waters H-Class) was used for analysis on each instrument. The autosampler was maintained at 5±3° C. 10 nmol of NAT and/or NAT degradants (50 μl for most samples) was injected on to the column for analysis. The chromatograms were processed using Dionex Chromeleon software.
(§2) Total NAT degradation for each sample was calculated by comparing NAT peak area to the control sample for each stress model (Table 7). NAT degradation ranged from 3% (thermal stress, non-His buffer) to 83% (ICH light stress, His buffer).

Data set [2] is described as follows: Fenton stress of NAT in formulation buffer, RP-HPLC at 240 nm. The note with it: for % NAT degradation ± 1SD: Fenton stress (0.2 mM FeCl2, 10 ppm H2O2, 3 hours 40° C.). As for the experimental part:
FeCl2 (Sigma Aldrich, 98% purity) and H2O2 (Sigma Aldrich, 30% w/w in H2O) were added to a final concentration of 0.2 mM and 10 ppm, respectively, to a histidine-containing buffer at pH 5.5 with 0.3 mM NAT ±5 mM L-Met, pH 5.5. Upon addition of H2O2 the vials were vortexed briefly and incubated for 3 hours at 40° C. Oxidation was quenched by the addition of L-Met to a final concentration of 100 mM. After the addition of the quenching solution, the final NAT concentration was 0.2 mM.
as §1, §2

A short description of data set [3]: Thermal stress of NAT in formulation buffer, RP-HPLC at 240 nm. The conditions noted are these: elevated temperature (40° C., 5 months), His buffer, 1.0 mM NAT. As for the experimental part: Histidine and non-histidine buffers containing 1.0 mM NAT were aliquoted into sterile glass vials (5 ml/vial, 6 vials per buffer). Vials were stored in a dark box at the indicated temperatures during the stress and transferred to −70° C. for storage until analysis (timepoints taken monthly for five months). Initial time points for samples of each buffer solution were transferred immediately to −70° C. Prior to analysis, the samples were thawed and diluted with Milli-Q H2O to a final NAT concentration of 0.2 mM.
as §1, with “10 nmol of NAT and/or NAT degradants (50 μl for most samples) was injected on to the column for analysis. The chromatograms were processed using Dionex Chromeleon software.” left out
Total NAT degradation for each sample was calculated by comparing NAT peak area to the control sample for each stress model (Table 7). […]

Data set [4] is described as follows: Real time stability of NAT in drug product formulations. As for the experimental part: NAT and NAT degradants were separated on an Agilent 1200 series HPLC or Waters H Class UPLC using an Agilent ZORBAX SB-C18 3.5 μm, 4.6×75 mm reverse phase column. Column temperature was held at 30±0.8° C. by a thermostat controller. The gradients used for HPLC and UPLC are listed in Tables 5 and 6, respectively (note: the shorter gradient on the UPLC was designed to accommodate earlier retention times and the column re-equilibration period was elongated due to the larger range of system pressure at a flow rate of 1.0 ml/min). NAT degradation products were detected at 240 nm. The standard bandwidth setting (8 nm for Agilent 1200 HPLC, 4.8 nm for Waters H-Class) was used for analysis on each instrument. The autosampler was maintained at 5±3° C. 10 nmol of NAT and/or NAT degradants (50 μl for most samples) was injected on to the column for analysis. The chromatograms were processed using Dionex Chromeleon software. Protein-containing samples were diluted in guanidine and the proteins removed via ultra-filtration (Amicon spin filters with a 30 kDa molecular weight cut-off). […] Using the final sample preparation conditions, recovery of NAT was 94-99% for three tested antibody/antibody derivatives and recovery of NAT degradants was 98-100% (data not shown). With this model experience in hand, the amount of NAT oxidation expected to occur in the manufacturing and storage of mAbs was explored next. FIG. 12 illustrates the comparison of the AAPH model stress system with an antibody at 150 mg/ml (1.0 mM) co-formulated with NAT, Met, and other excipients typical of mAb formulations. Results are shown for the initial time point, at −20° C. and 5° C. for six months (representative of typical storage conditions), and 25° C. for 6 months (representative of accelerated stability conditions). Oxidation levels were negligible directly after manufacturing and under the typical storage conditions tested.

Where “and” joins values, the source holds several entries; their conditions need not be identical. Identical values can stand only once.

As to `CC(=O)N[C@@H](Cc1c[nH]c2ccccc12)C(=O)O` [NAT, N-acetyl-tryptophan], the “% NAT degradation ± 1SD” value in data set [1] (His + 5 mM Met buffer) was 17.6 ± 0.7 (n = 2) %; in data set [1] (His buffer), 83.4 ± 0.2 (n = 2) %; in data set [1] (Non-His + 5 mM Met buffer), 18 ± 2 (n = 2) %; in data set [1] (Non-His buffer), 28% and 28.0 ± 0.1 (n = 2) %; in data set [2] (His + 5 mM Met buffer, 0.3 mM NAT) it was 15.2 ± 0.7 (n = 3) %; in data set [2] (His buffer pH 5.5, 0.3 mM NAT), 40 ± 3 (n = 3) %. Moreover, the “% NAT degradation ± 1SD” value in data set [3] is reported as 11.1 (n = 1) %. Further, the “improvement to NAT stability by 5 mM Met (total NAT loss)” value in data set [1] (ICH light stress conditions) was 10-16%; in data set [2] (Fenton model), 25%. For the same compound, in data set [2] (Fenton stress, under all tested conditions), the “NAT degradation (loss)” value is 30-40% and 33-41%. Moreover, the “loss of NAT” value in data set [4] (3 months at 25° C., corresponding vehicle (formulation without protein)) is listed as 1%. In addition, the NAT loss in data set [4] (3 months at 25° C., protein containing sample (antibody 150 mg/ml, NAT, Met, excipients)) came out at 7.5%. Besides, the NAT oxidation levels entry in data set [4] (directly after manufacturing and at −20° C. and 5° C. for six months, antibody 150 mg/ml co-formulated with NAT, Met) is given as “negligible”. In data set [4] (six months at 25° C., antibody at 150 mg/ml (1.0 mM) co-formulated with NAT, Met and other excipients), the “total NAT loss” value was 16.8%. For the same compound, the NAT degradation result in data set [4] (vehicle (formulation without protein) at higher temperatures) is reported as “minimal NAT degradation”.
